# Experiments:
# RNase R = biological target: T1, RNase R (Escherichia coli, UniProt P21499); format: biochemical; conditions: 10 mM compound, 10 nM enzyme, 10 nM poly(A), 1 mM MgCl2, 100 mM KCl, pH 8, 37 °C, DMSO
# T1 construct: gene rnr; full-length recombinant, N-terminal His tag (pET15b derivative), expressed in E. coli BL21(DE3), IMAC purified
# RNase II = biological target: T2, RNase II (Escherichia coli, UniProt P30850); format: biochemical; conditions: 10 mM compound, 10 nM enzyme, 10 nM poly(A), 1 mM MgCl2, 100 mM KCl, pH 8, 37 °C, DMSO
# T2 construct: gene rnb; full-length recombinant, N-terminal His tag (pET15b derivative), expressed in E. coli BL21(DE3), IMAC purified
# T2 sequence (P30850 whole entry): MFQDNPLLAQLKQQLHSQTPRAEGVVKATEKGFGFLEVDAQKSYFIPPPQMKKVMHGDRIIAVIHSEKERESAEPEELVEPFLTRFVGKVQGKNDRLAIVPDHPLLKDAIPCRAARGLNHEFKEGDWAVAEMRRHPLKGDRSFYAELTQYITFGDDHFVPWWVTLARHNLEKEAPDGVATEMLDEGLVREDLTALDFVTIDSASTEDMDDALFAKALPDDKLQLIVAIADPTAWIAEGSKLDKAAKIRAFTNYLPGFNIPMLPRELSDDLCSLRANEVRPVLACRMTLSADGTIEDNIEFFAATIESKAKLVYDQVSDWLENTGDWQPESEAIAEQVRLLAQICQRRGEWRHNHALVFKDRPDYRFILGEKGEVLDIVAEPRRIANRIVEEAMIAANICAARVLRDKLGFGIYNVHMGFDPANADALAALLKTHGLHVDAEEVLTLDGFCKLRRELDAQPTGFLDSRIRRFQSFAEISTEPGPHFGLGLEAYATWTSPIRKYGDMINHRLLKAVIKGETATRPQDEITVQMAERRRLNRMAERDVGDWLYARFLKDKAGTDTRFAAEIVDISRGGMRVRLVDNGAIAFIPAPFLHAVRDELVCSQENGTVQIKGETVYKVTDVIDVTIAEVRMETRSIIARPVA
# T1 sequence (P21499 2-813): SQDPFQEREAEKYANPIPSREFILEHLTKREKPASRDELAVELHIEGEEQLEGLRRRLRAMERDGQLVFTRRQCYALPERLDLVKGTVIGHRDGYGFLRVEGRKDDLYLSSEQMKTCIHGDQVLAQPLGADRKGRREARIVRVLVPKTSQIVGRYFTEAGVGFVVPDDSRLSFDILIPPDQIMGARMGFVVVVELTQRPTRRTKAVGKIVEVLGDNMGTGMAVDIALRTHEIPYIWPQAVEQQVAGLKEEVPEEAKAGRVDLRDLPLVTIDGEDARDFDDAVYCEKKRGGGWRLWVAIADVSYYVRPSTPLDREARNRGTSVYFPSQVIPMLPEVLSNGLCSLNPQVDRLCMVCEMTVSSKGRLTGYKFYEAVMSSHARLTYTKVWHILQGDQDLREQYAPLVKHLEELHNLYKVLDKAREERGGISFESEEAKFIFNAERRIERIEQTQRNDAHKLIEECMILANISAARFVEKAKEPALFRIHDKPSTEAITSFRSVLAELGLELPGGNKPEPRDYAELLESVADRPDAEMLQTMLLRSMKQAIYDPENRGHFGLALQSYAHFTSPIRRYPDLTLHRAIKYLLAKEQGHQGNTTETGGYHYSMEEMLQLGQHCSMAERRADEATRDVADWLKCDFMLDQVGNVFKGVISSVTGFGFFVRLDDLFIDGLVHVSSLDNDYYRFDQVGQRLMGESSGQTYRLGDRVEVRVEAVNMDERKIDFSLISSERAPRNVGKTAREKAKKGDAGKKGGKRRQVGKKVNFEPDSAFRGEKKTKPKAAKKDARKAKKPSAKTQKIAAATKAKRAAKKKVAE
compound,measurement,setting,value
"Cc1nc(S)nc(O)c1Oc1cccc(C(F)(F)F)c1 [SPB04215, 2-mercapto-6-methyl-5-[3-(trifluoromethyl)phenoxy]pyrimidin-4-ol]","gel exoribonuclease assay, 5'-32P 35-nt poly(A)",RNase R,SPB04215 and SPB04462 compounds were also effective in inhibiting RNase R activity
same,"gel exoribonuclease assay, 5'-32P 35-nt poly(A)",RNase II,"with RNase II being also affected, but to a lesser extent"
"CC(=O)Nc1nc(C)c(Oc2cccc(C(F)(F)F)c2)c(O)n1 [SPB04462, N1-{4-hydroxy-6-methyl-5-[3-(trifluoromethyl)phenoxy]pyrimidin-2-yl}acetamide]","gel exoribonuclease assay, 5'-32P 35-nt poly(A)",RNase R,SPB04215 and SPB04462 compounds were also effective in inhibiting RNase R activity
same,"gel exoribonuclease assay, 5'-32P 35-nt poly(A)",RNase II,"with RNase II being also affected, but to a lesser extent"
